Laboratory results taken from ChEMBL document CHEMBL1142094, “Effects of glutathione and ascorbic acid on streptomycin sensitivity of Escherichia coli” (2007).
≈ marks a conversion by molar mass, not a printed value. Calls of active or inactive are those of the source. The rule behind the calls is not given here.

Experiments:
Escherichia coli [1] = assay: Susceptibility of Escherichia coli K12 MG1655 by agar dilution method; type: functional
Escherichia coli [2] = assay: Susceptibility of Escherichia coli K12 MG1655 in presence of 10 mM glutathione by agar dilution method relative to control; type: functional
Escherichia coli [3] = assay: Increase in ROS levels in Escherichia coli K12 MG1655 assessed as ratio of ROS with antibiotic to ROS without antibiotic; type: functional
Escherichia coli [4] = assay: Decrease in sensitivity of Escherichia coli K12 MG1655 assessed as reduction in zone of inhibition in presence of 10 mM glutathione by disk diffusion method; type: functional, organism-based
Escherichia coli [5] = assay: Decrease in sensitivity of Escherichia coli K12 MG1655 assessed as reduction in zone of inhibition in presence of 10 mM ascorbic acid by disk diffusion method; type: functional, organism-based
Escherichia coli [6] = assay: Antibacterial activity against Escherichia coli K12 MG1655 in presence of ascorbic acid by agar dilution method relative to control; type: functional
Escherichia coli [7] = assay: Antibacterial activity against Escherichia coli K12 W3110; type: functional
Escherichia coli [8] = assay: Antibacterial activity against Escherichia coli K12 XL1 Blue; type: functional
Escherichia coli [9] = assay: Antibacterial activity against Escherichia coli K12 DH5alpha; type: functional
Escherichia coli [10] = assay: Antibacterial activity against Escherichia coli K12 W3110 in presence of 10 mM ascorbic acid; type: functional
Escherichia coli [11] = assay: Antibacterial activity against Escherichia coli K12 XL1 Blue in presence of 10 mM ascorbic acid; type: functional
Escherichia coli [12] = assay: Antibacterial activity against Escherichia coli K12 DH5alpha in presence of 10 mM ascorbic acid; type: functional

Row | Compound | MIC (Escherichia coli [1]) [µg/mL] | MIC (Escherichia coli [2]) [µg/mL] | Ratio (Escherichia coli [3]) | further results
1 | O=C(N[C@H](CO)[C@H](O)c1ccc([N+](=O)[O-])cc1)C(Cl)Cl [CHLORAMPHENICOL] | 8 (≈ 24.8 µM) | 4 | – | –
2 | O=C(O)c1cn(C2CC2)c2cc(N3CCNCC3)c(F)cc2c1=O [CIPROFLOXACIN] | – | – | 1.1 | –
3 | NC[C@H]1O[C@H](O[C@H]2[C@H](O)[C@@H](O[C@H]3O[C@H](CO)[C@@H](O)[C@H](N)[C@H]3O)[C@H](N)C[C@@H]2N)[C@H](O)[C@@H](O)[C@@H]1O [KANAMYCIN] | 6 (≈ 12.4 µM) | > 250 | 0.87 | –
4 | CC1=CC(=O)c2ccccc2C1=O [MENADIONE] | – | – | 2.02 | –
5 | CN[C@@H]1[C@H](O)[C@H](NC)[C@H]2O[C@@]3(O)C(=O)C[C@@H](C)O[C@H]3O[C@@H]2[C@H]1O [SPECTINOMYCIN] | 20 (≈ 60.2 µM) | > 300 | – | –
6 | CN[C@@H]1[C@H](O[C@H]2[C@H](O[C@H]3[C@H](O)[C@@H](O)[C@H](N=C(N)N)[C@@H](O)[C@@H]3N=C(N)N)O[C@@H](C)[C@]2(O)C=O)O[C@@H](CO)[C@H](O)[C@H]1O [STREPTOMYCIN] | 8 (≈ 13.8 µM) | > 250 | 0.78 | Activity (Escherichia coli [4]): Active; Activity (Escherichia coli [5]): Active; MIC (Escherichia coli [6]): 20 µg/mL; MIC (Escherichia coli [7]): 4 µg/mL (≈ 6.88 µM); MIC (Escherichia coli [8]): 4 µg/mL (≈ 6.88 µM); MIC (Escherichia coli [9]): 4 µg/mL (≈ 6.88 µM); MIC (Escherichia coli [10]): > 8 µg/mL; MIC (Escherichia coli [11]): > 8 µg/mL; MIC (Escherichia coli [12]): > 8 µg/mL
7 | CN(C)[C@@H]1C(O)=C(C(N)=O)C(=O)[C@@]2(O)C(O)=C3C(=O)c4c(O)cccc4[C@@](C)(O)[C@H]3C[C@@H]12 [TETRACYCLINE] | 4 (≈ 9 µM) | 4 | 0.96 | –
8 | GENTAMICIN | 2 | > 200 | 1 | –
